Test results as given in patent publication US5854004A, “Process for screening substances capable of modulating a receptor-dependent cellular signal transmission path” (Boehringer Ingleheim GmbH, priority 1991, dated 1998).

How the values were obtained:
[1] = tested on: A549 cells; test: Induction of TRE-sensor-DNA (luciferase) in transiently transfected pretest cells, A549
Method: (§1) Approximately 1×10^7 cells per transfection were detached from the surface of the culture dish using trypsin and centrifuged for 5 minutes at 1200 rpm at ambient temperature (Heraeus Minifuge), washed once with 5 ml of serum-free medium, centrifuged for 5 minutes at 1200 rpm and suspended in 1 ml of serum-free medium. Then the cells were mixed with 250 μg/ml DEAE-dextrane, 5 μg plasmid DNA and 50 μg/ml chloroquin, incubated for 30 minutes at 37° C., washed once with medium containing no FCS and incubated overnight at 37° C. with 10 ml of fresh serum-containing medium. Then the medium was changed and after 4 hours the cells were induced, either with 10 ng TPA/ml medium or with 20 μM forskolin. […] The cells were lysed by the addition of 100 μl lysing buffer (1% Triton X-100, 25 mM glycylglycine pH 7.8, 15 mM MgSO4, 4 mM EDTA and 1 mM […]), the lysate was centrifuged for 5 minutes and the supernatant was transferred into a fresh test tube. […] The measuring time for light emission was 10 seconds.
(§2) The cell lines A549, HeLa and COS-7 were transiently transfected as described above by the addition of plasmid pBHluc1.3 and induced by the addition of TPA. Cells which were only transfected but not induced were used as a negative control.
(§3) The cell lines A549, HeLa and COS-7 were transiently transfected by the addition of plasmid pADneo(3TRE)BGluci and induced by the addition of TPA or forskolin. Once again, cells which were only transfected but not induced were used as a negative control.
(§4) The cell lines COS-7 and A549 were transiently transfected by the addition of plasmid pADneo(3×TREd16)BGluci, pADneo(3×TREd21)BGluci, pADneo(3×TREd24)BGluci, pADneo(3×TREd34)BGluci, pADneo(6×TREd16)BGluci, pADneo(6×TREd21)BGluci, pADneo(6×TREd24)BGluci or pADneo(6×TREd34)BGluci and induced by the addition of TPA or forskolin.

[2] = tested on: HeLa cells; test: Induction of TRE-sensor-DNA (luciferase) in transiently transfected pretest cells, HeLa; settings: 18 h
Method: as §1, §2, §3

[3] = tested on: COS-7 cells; test: Induction of TRE-sensor-DNA (luciferase) in transiently transfected pretest cells, COS-7
Method: as §1, §2, §3, §4

[4] = molecular target: human muscarinic M3-receptor (Homo sapiens, UniProt P20309); type: cell-based
[5] = molecular target: T1, human dopamine D1-receptor (Homo sapiens, UniProt P21728); test: Induction of pBHluc1.3 (TRE) via dopamine-D1-receptor in co-transfected COS-7 cells; type: cell-based; settings: 10 ng/ml TPA or 1 μM apomorphine, 18 h
[6] = tested on: cell line A20; test: Luciferase induction in stable TRE-pretest cell line A20 (A549, pBHluc1.3)
Method: In order to produce a stable (pre-)test cell line for substances which influence the expression of the luciferase gene by direct or receptor-mediated modulation of the IP3 /DAC-signal transduction pathway, A549 cells were simultaneously transfected with the plasmid pBHluc1.3 and the selection plasmid pRSVneo by electroporation as follows: after removal of the medium the cells were detached from the surface by means of a trypsin/PBS solution, suspended in medium and sedimented for 5 minutes at 250×g. […] 0.8 ml of cell suspension were combined with 20 μg of pBHluc1.3 and 2 μg of pRSVneo. Both plasmids had previously been linearised with BamHI.
(§5) 15-20 days after transfection, individual cell clones were transferred into 96-well microtitre plates and further cultivated. […] Approximately 40,000 cells in each clone were sown, in a procedure repeated 6 times, in 200 μl per well of a light-impervious 96-well microtitre plate coated with tissue culture (Microlite™, Dynatech Laboratories) and incubated overnight at 37° C. Three mixtures were treated with 10 ng TPA/ml and incubated for a further 8 hours. Then the medium was removed and the cells were washed twice with PBS.
(§6) The pretest cell line A20 was transfected, as described under a), by electroporation with the plasmid pAHyg-NK2, which had previously been linearised with BglII. From the day after transfection onwards, the cells were grown in selection medium, as used for the cell line A20 and additionally enriched with 150 μg/ml hygromycin B (Sigma). Individual clones were tested for inducibility of the luciferase activity as described under a).

[7] = molecular target: T2, human neurokinin 2-receptor (Homo sapiens, UniProt P21452); test: Luciferase activity in NK2-test cell line A20/NK2-122; settings: A20/NK2-122, depending on the dose
T2 sequence (P21452 1-398): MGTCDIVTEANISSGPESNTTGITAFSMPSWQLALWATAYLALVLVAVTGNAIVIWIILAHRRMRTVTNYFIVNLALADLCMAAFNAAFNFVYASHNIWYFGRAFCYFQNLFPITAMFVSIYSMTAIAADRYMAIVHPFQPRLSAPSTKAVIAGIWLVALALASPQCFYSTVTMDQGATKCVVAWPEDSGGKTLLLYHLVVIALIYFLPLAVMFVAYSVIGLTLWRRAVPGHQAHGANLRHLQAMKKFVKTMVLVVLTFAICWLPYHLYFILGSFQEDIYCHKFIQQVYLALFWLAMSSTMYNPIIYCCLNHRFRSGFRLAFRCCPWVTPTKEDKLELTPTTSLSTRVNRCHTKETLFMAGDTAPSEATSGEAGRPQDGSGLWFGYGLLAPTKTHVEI
Method: as §5
This Example illustrates the preparation of a test cell line for the human neurokinin 2 (NK2)-receptor which is coupled to the phospholipase C-signal transduction pathway. This test cell line makes it possible, by measurement of the luciferase activity, to identify substances which modulate the intracellular IP3 /DAG concentrations, depending on the receptor.
as §6

[8] = tested on: cell line CHO C6-13; test: Luciferase expression in CRE-pretest cell line CHO C6-13; settings: 3 hours treatment, FIG. 33
Method: The transfection by electroporation was carried out as follows: after removal of the medium the cells were detached from the surface by means of a trypsin/PBS solution, suspended in medium and pelleted for 5 minutes at 250×g. The cells were washed in HBS (10 mM HEPES pH 7.4, 150 mM NaCl) and pelleted by centrifuging. The cells were suspended in HBS in a density of 1×10^7 cells/ml. 0.8 ml of cell suspension were mixed with 20 μg of DNA of the plasmid pADneo2-C6-BGL linearised with ScaI and transferred into an electroporation dish. […] After the electroporation the cells were diluted in the medium mentioned above, 20,000 cells per 90 mm culture dish was sown and incubated overnight at 37° C.
Two batches of each were treated with 20 μM forskolin and incubated for a further 5 hours at 37° C. Then the medium was removed from all the cells and the cells were washed with PBS.
Cells of the cell line CHO C6-13 were treated for 3 hours with various substances which alter the intracellular concentration of cAMP or IP3 /DAG or simulate a change in concentration, and also treated with receptor-specific agonists which influence the above-mentioned signal transduction mechanisms.

[9] = tested on: A549 cells; settings: Voraberger et al., 1991; cited from earlier work
[10] = molecular target: T1, human dopamine D1-receptor; test: Luciferase activity in dopamine D1-receptor test cell line CHO 13D1-38
Method: The cell line CHO C6-13 characterised above was transfected, as described under a), by electroporation with plasmid pAD-CMV2:D1, which had previously been linearised with FspI.
For the use of test cell lines in an automatic screening system with a high throughput rate it is advantageous to use microtitre plates having 96 wells per plate. For this purpose, 60,000 cells (CHO C6-13 or CHO 13D1-38) were sown in 200 μl medium per well in light-impermeable microtitre plates coated with tissue culture
(Microlite™, Dynatech Labroatories) and incubated overnight at 37° C. Then various chemicals were added to the cells and they were incubated for a certain length of time (usually 3 hours). After removal of the medium the cells were washed with PBS, lysed in 1% Triton X-100 and the luciferase activity was measured in a 96-well luminometer (ML-1000, Dynatech) (FIG. 36).
In order to simulate a screening process in which the test substances are preferably supplied in a uniform solvent, a final concentration of 1% DMSO was used in this experiment.

[11] = molecular target: T1, human dopamine D1-receptor; test: Induction of pADneo2-C6-BGL (CRE) via dopamine-D1-receptor in co-transfected COS-7 cells; settings: COS-7; 20 μM forskolin or 1 μM apomorphine, 18 h
[12] = molecular target: T3, human 5HT2-receptor (Homo sapiens, UniProt P28223); test: Induction of pBHluc1.3 (TRE) via 5-HT2-receptor in co-transfected COS-7 cells; type: cell-based
Method: (§7) Induction was carried out with i) 20 μM forskolin (Sigma P8139), ii) 10 μα-methylserotonin-maleate (RBI M-110), and iii) 10 μα-methylserotonin-maleate and 10 μM ketanserin-tartrate (RBI S-006). […] It follows, from the above results, that, depending on 5-HT2 -receptors, only regulation elements which respond to IP3 /DAG (TRE), but not regulation elements which respond to cAMP (CRE) are selectively activated.

[13] = molecular target: T3, human 5HT2-receptor; test: Induction of pADneo2-C6-BGL (CRE) via 5-HT2-receptor in co-transfected COS-7 cells; type: cell-based; settings: 20 μM forskolin or 10 μ α-methylserotonin-maleate
Method: as §7

[14] = molecular target: T3, human 5HT2-receptor; test: cell-based; settings: read-out: induction of luciferase activity, clone A20/5HT2-11
Text: The human 5HT2-receptor is another example of a receptor coupled to the phospholipase C-signal transduction pathway. The TRE-cell line A20 is therefore also suitable in this case as a starting cell line for establishing a test cell line in order to discover substances which modulate the activity of the 5HT2-receptor.
The plasmid pAHyg-5HT2, linearised with BglII, was for this purpose transfected into the cell line A20 by electroporation as described under a) and grown in selection medium.
For this purpose the cells were simultaneously treated with a constant amount of serotonin (1 μg) and increasing amounts of antagonist.

[15] = 10 ng TPA/ml or 20 μM forskolin
[16] = COS-7, 10 ng TPA/ml or 20 μM forskolin, 18 h

Compound: CCCCCCCCCCCCCC(=O)O[C@@H]1[C@@H](C)[C@@]2(O)[C@@H](C=C(CO)C[C@]3(O)C(=O)C(C)=C[C@@H]23)[C@@H]2C(C)(C)[C@]12OC(C)=O [TPA, phorbol-12-myristat-13-acetate]
- induction of pADneo(6×TREdx)BGluci depending on spacing of TRE-elements ([1]; A549, 10 ng TPA/ml): higher when the spacing of the TRE-elements is smaller
- induction of pADneo(nTREdx)BGluci, 6 versus 3 TRE-elements ([1]; A549, 10 ng TPA/ml): the induction with TPA for the constructions with 6 TRE-elements is greater than for the constructions with 3 TRE-elements
- induction of pADneo(3TRE)BGluci ([1]; A549, 10 ng TPA/ml or 20 μM forskolin, 18 h): can be induced in the tested cells by TPA
- fold induction at 0.01 µg/mL ([1]; Homo sapiens, A549, 18 h, read-out: induction of pBHluc1.3 (luciferase)): > 10
- induction of pADneo(3TRE)BGluci [2, 15]: can be induced in the tested cells by TPA
- induction of pBHluc1.3 by TPA or forskolin [2, 15]: could also be induced by TPA
- fold induction at 0.01 µg/mL ([2]; Homo sapiens, read-out: induction of pBHluc1.3 (luciferase)): > 10
- induction of pADneo(6×TREdx)BGluci depending on spacing of TRE-elements ([3]; COS-7, 10 ng TPA/ml): higher when the spacing of the TRE-elements is smaller
- induction of pADneo(nTREdx)BGluci, 6 versus 3 TRE-elements ([3]; COS-7, 10 ng TPA/ml): the induction with TPA for the constructions with 6 TRE-elements is greater than for the constructions with 3 TRE-elements
- induction of pADneo(3TRE)BGluci [3, 16]: can be induced in the tested cells by TPA
- induction of pBHluc1.3 by TPA or forskolin [3, 16]: could also be induced by TPA
- fold induction at 0.01 µg/mL ([3]; Primates, COS-7, 18 h, read-out: induction of pBHluc1.3 (luciferase)): > 10
- induction of luciferase expression [4]: induced both by TPA and by carbachol
- induction of luciferase expression (TRE) [5]: induced by TPA
- maximum induction of luciferase activity by TPA ([6]; A20, depending on the dose): ≤ 18 times
- fold induction at 0.01 µg/mL ([6]; Homo sapiens, A549, 8 h, read-out: inducibility of luciferase activity, clone A20): 15 to 20
- maximum induction of luciferase activity by TPA [7]: ≤ 18 times
- change in luciferase expression/activity [8]: did not bring about any significant change in the luciferase activity
- induction of 1.3 kb ICAM-1 fragment / pBHluc1.3 [9]: can be induced by TPA

Compound: CN1CCc2cccc3c2[C@H]1Cc1ccc(O)c(O)c1-3 [apomorphine]
- induction of luciferase expression (TRE) [5]: not by apomorphine
- change in luciferase expression/activity [8]: did not bring about any significant change in the luciferase activity
- increase in luciferase activity, clone CHO 13D1-38 ([10]; 10 μM apomorphine, 4 hours): highest increase in luciferase activity
- concentration which brings about maximum induction of the luciferase reporter gene ([10]; apomorphine final concentration): 1 µM
- time after stimulation at which increased luciferase activity was measured ([10]; apomorphine, FIG. 37A): one
- time to maximum luciferase activation ([10]; apomorphine, FIG. 37A): 2.5 h
- time up to which luciferase activation remained constant ([10]; apomorphine, FIG. 37A): 4 h
- dependency of ED50 values on duration of receptor stimulation ([10]; apomorphine, FIG. 37B): no significant dependency
- induction of luciferase expression (CRE) [11]: induced by forskolin and by apomorphine

Compound: O=C(c1ccc(F)cc1)C1CCN(CCn2c(=O)[nH]c3ccccc3c2=O)CC1 [ketanserin-tartrate]
- prevention of agonist-mediated induction ([12]; 10 μM α-methylserotonin-maleate and 10 μM ketanserin-tartrate): prevented

Compound: CC(N)Cc1c[nH]c2ccc(O)cc12 (stereo not drawn) [α-methylserotonin-maleate]
- induction of luciferase expression (TRE) ([12]; COS-7, 10 ng/ml TPA or 10 μg α-methylserotonin-maleate, 18 h): induced both by TPA and by α-methylserotonin-maleate
- induction of luciferase expression (CRE) [13]: not by the 5-HT2-receptor-agonist α-methylserotonin-maleate
- fold induction at 10 µM [14]: 4 to 5
